target: T1, CCR3 (Homo sapiens, UniProt P51677); assay: Human eosinophil chemotaxis (eotaxin mediated); type: cell-based; conditions: read-out: % inhibition at 1 μM, 1 μM compound, human eosinophils
T1 construct: Human eosinophils were isolated from EDTA anticoagulated peripheral blood; endogenous in cells; host or cells: human peripheral blood eosinophils
T1 sequence (P51677 1-355): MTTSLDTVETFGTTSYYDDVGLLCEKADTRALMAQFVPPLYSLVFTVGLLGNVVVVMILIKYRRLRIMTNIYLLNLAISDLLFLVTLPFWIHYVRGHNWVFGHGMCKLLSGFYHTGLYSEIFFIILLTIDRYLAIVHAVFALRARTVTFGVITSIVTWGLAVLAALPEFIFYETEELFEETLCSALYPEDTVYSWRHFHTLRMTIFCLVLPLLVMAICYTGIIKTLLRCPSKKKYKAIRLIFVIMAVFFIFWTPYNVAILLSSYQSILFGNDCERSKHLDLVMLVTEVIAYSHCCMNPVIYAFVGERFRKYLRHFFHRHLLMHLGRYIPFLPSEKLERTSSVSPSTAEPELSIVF
Procedure: Human Eosinophil Chemotaxis
Human eosinophils were isolated from EDTA anticoagulated peripheral blood as previously described (Hansel et al., J. Immunol. Methods, 1991, 145, 105-110). The cells were resuspended at 10×10^6 mL-1 in RPMI containing 200 IU/mL penicillin, 200 μg/mL streptomycin sulfate and supplemented with 10% HIFCS, at room temperature.
Eosinophils (700 μl) were pre-incubated for 15 mins at 37° C. with 7 μl of either vehicle or compound (100× required final concentration in 10% DMSO). […] The filter was then placed over the wells and 25 μl of eosinophil suspension were added to the top of the filter. The plate was incubated for 1 hr at 37° C. in a humidified incubator with a 95% air/5% CO2, atmosphere to allow chemotaxis.
The medium, containing cells that had not migrated, was carefully aspirated from above the filter and discarded. The filter was washed once with phosphate buffered saline (PBS) containing 5 mM EDTA to remove any adherent cells. Cells that had migrated through the filter were pelleted by centrifugation (300×g for 5 mins at room temperature) and the filter removed and the supernatant transferred to each well of a 96-well plate (Costar). The pelleted cells were lysed by the addition of 28 μl of PBS containing 0.5% Triton ×100 followed by two cycles of freeze/thawing. The cell lysate was then added to the supernatant. The number of eosinophils migrating was quantified according to the method of Strath et al., J. Immunol. Methods, 1985, 83, 209 by measuring eosinophil peroxidase activity in the supernatant.

inhibition at 1 µM	Structure (SMILES)
90%	COc1ccccc1C(C(=O)O)N1CCC(CN2CCC(Oc3ccc(Cl)c(Cl)c3)CC2)CC1 (stereo not drawn) [Example 4, 4-[[4-(3,4-Dichlorophenoxy)-1-piperidinyl]methyl]-α-(2-methoxyphenyl)-1-piperidineacetic acid]
108%	COc1ccccc1C(C(=O)O)N1CCC(CN2CCC(Oc3ccc(Cl)cc3C)CC2)CC1 (stereo not drawn) [Example 10, 4-[[4-(4-Chloro-2-methylphenoxy)-1-piperidinyl]methyl]-α-(2-methoxyphenyl)-1-piperidineacetic acid]
87%	Cc1ccc(C(C(=O)O)N2CCC(CN3CCC(Oc4ccc(Cl)cc4C)CC3)CC2)cc1 (stereo not drawn) [Example 13, 4-[[4-(4-Chloro-2-methylphenoxy)-1-piperidinyl]methyl]-α-(4-methylphenyl)-1-piperidineacetic acid]

target: T2, human H1 receptor (Homo sapiens, UniProt P35367); assay: Histamine H1 receptor binding, displacement of [3H]-pyrilamine; conditions: 1 nM [3H]-pyrilamine; membranes of recombinant CHO-K1 cells expressing human H1 receptor; read-out: H1 pKi/[1328_S] (converted)
T2 construct: purchased Euroscreen SA, Brussels, Belgium ES-390-M; host or cells: recombinant CHO-K1 cells (membranes)
T2 sequence (P35367 whole entry): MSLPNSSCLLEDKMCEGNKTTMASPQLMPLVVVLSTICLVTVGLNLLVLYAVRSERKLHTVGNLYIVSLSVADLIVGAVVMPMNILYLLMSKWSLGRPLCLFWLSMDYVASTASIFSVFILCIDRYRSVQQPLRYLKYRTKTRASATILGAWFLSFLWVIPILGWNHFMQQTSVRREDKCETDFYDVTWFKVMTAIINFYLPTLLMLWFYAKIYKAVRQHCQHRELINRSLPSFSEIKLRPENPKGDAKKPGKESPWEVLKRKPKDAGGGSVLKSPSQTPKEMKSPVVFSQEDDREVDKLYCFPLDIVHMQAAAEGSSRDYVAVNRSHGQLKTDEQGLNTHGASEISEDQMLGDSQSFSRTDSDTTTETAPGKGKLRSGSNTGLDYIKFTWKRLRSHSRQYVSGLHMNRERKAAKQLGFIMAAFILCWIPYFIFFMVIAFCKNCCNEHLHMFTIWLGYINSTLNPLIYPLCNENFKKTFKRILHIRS

Ki	Structure (SMILES)
31.6 nM	Cc1c(Cl)ccc(OC2CCN(CC3CCN(C(C(=O)O)c4ccccc4)CC3)CC2)c1Cl (stereo not drawn) [Example 2, 4-[[4-(2,4-Dichloro-3-methylphenoxy)-1-piperidinyl]methyl]-α-phenyl-1-piperidineacetic acid]
39.8 nM	O=C(O)C(c1ccc(F)cc1)N1CCC(CN2CCC(Oc3ccc(Cl)c(Cl)c3)CC2)CC1 (stereo not drawn) [Example 3, 4-[[4-(3,4-Dichlorophenoxy)-1-piperidinyl]methyl]-α-(4-fluorophenyl)-1-piperidineacetic acid]
100 nM	COc1ccccc1C(C(=O)O)N1CCC(CN2CCC(Oc3ccc(Cl)c(Cl)c3)CC2)CC1 (stereo not drawn) [Example 4, 4-[[4-(3,4-Dichlorophenoxy)-1-piperidinyl]methyl]-α-(2-methoxyphenyl)-1-piperidineacetic acid]
79.4 nM	Cc1ccccc1C(C(=O)O)N1CCC(CN2CCC(Oc3ccc(Cl)c(Cl)c3)CC2)CC1 (stereo not drawn) [Example 5, 4-[[4-(3,4-Dichlorophenoxy)-1-piperidinyl]methyl]-α-(2-methylphenyl)-1-piperidineacetic acid]
20 nM	Cc1ccc(C(C(=O)O)N2CCC(CN3CCC(Oc4ccc(Cl)c(Cl)c4)CC3)CC2)cc1 (stereo not drawn) [Example 6, 4-[[4-(3,4-Dichlorophenoxy)-1-piperidinyl]methyl]-α-(4-methylphenyl)-1-piperidineacetic acid]
79.4 nM	COc1ccccc1C(C(=O)O)N1CCC(CN2CCC(Oc3ccc(Cl)c(C)c3Cl)CC2)CC1 (stereo not drawn) [Example 7, 4-[[4-(2,4-Dichloro-3-methylphenoxy)-1-piperidinyl]methyl]-α-(2-methoxyphenyl)-1-piperidineacetic acid]
50.1 nM	Cc1ccccc1C(C(=O)O)N1CCC(CN2CCC(Oc3ccc(Cl)c(C)c3Cl)CC2)CC1 (stereo not drawn) [Example 8, 4-[[4-(2,4-Dichloro-3-methylphenoxy)-1-piperidinyl]methyl]-α-(2-methylphenyl)-1-piperidineacetic acid]
31.6 nM	Cc1ccc(C(C(=O)O)N2CCC(CN3CCC(Oc4ccc(Cl)c(C)c4Cl)CC3)CC2)cc1 (stereo not drawn) [Example 9, 4-[[4-(2,4-Dichloro-3-methylphenoxy)-1-piperidinyl]methyl]-α-(4-methylphenyl)-1-piperidineacetic acid]
251 nM	COc1ccccc1C(C(=O)O)N1CCC(CN2CCC(Oc3ccc(Cl)cc3C)CC2)CC1 (stereo not drawn) [Example 10, 4-[[4-(4-Chloro-2-methylphenoxy)-1-piperidinyl]methyl]-α-(2-methoxyphenyl)-1-piperidineacetic acid]
158 nM	Cc1cc(Cl)ccc1OC1CCN(CC2CCN(C(C(=O)O)c3ccccc3C)CC2)CC1 (stereo not drawn) [Example 11, 4-[[4-(4-Chloro-2-methylphenoxy)-1-piperidinyl]methyl]-α-(2-methylphenyl)-1-piperidineacetic acid]
200 nM	COc1ncc(C(C(=O)O)N2CCC(CN3CCC(Oc4ccc(Cl)c(Cl)c4)CC3)CC2)c(OC)n1 (stereo not drawn) [Example 12, α-[4-[[4-(3,4-Dichlorophenoxy)-1-piperidinyl]methyl]-1-piperidinyl]-2,4-dimethoxy-5-pyrimidineacetic acid]
25.1 nM	Cc1ccc(C(C(=O)O)N2CCC(CN3CCC(Oc4ccc(Cl)cc4C)CC3)CC2)cc1 (stereo not drawn) [Example 13, 4-[[4-(4-Chloro-2-methylphenoxy)-1-piperidinyl]methyl]-α-(4-methylphenyl)-1-piperidineacetic acid]
25.1 nM	CC(=O)Nc1cccc(C(C(=O)O)N2CCC(CN3CCC(Oc4ccc(Cl)c(Cl)c4)CC3)CC2)c1 (stereo not drawn) [Example 14, α-[3-(Acetylamino)phenyl]-4-[[4-(3,4-dichlorophenoxy)-1-piperidinyl]methyl]-1-piperidineacetic acid]
25.1 nM	Cc1c(Cl)ccc(OC2CCN(CC3CCN(C(C(=O)O)c4ccc(F)cc4)CC3)CC2)c1Cl (stereo not drawn) [Example 15, 4-[[4-(2,4-Dichloro-3-methylphenoxy)-1-piperidinyl]methyl]-α-(4-fluorophenyl)-1-piperidineacetic acid]
10 nM	O=C(O)C(c1ccccc1)N1CCC(O)(CN2CCC(Oc3ccc(Cl)c(Cl)c3)CC2)CC1 (stereo not drawn) [Example 17, 4-[[4-(3,4-Dichlorophenoxy)-1-piperidinyl]methyl]-4-hydroxy-α-phenyl-1-piperidineacetic acid]
15.8 nM	Cc1ccc(C(C(=O)O)N2CCC(O)(CN3CCC(Oc4ccc(Cl)c(Cl)c4)CC3)CC2)cc1 (stereo not drawn) [Example 18, 4-[[4-(3,4-Dichlorophenoxy)-1-piperidinyl]methyl]-4-hydroxy-α-(4-methylphenyl)-1-piperidineacetic acid]
7.94 nM	COc1ccccc1C(C(=O)O)N1CCC(O)(CN2CCC(Oc3ccc(Cl)c(Cl)c3)CC2)CC1 (stereo not drawn) [Example 19, 4-[[4-(3,4-Dichlorophenoxy)-1-piperidinyl]methyl]-4-hydroxy-α-(2-methoxyphenyl)-1-piperidineacetic acid]
10 nM	COC(=O)c1ccccc1CN1CCC(CN2CCC(Oc3ccc(Cl)c(Cl)c3)CC2)CC1 [Example 42, methyl 2-[(4-{[4-(3,4-dichlorophenoxy)piperidin-1-yl]methyl}piperidin-1-yl)methyl]benzoate]
126 nM	COC(=O)CN1CCC(CN2CCC(Oc3ccc(Cl)cc3C)CC2)CC1 [Example 69, Methyl-4-[[4-(4-chloro-2-methylphenoxy)-1-piperidinyl]methyl]-1-piperidineacetate]
126 nM	O=C(O)CN1CCC(CN2CCC(Oc3ccc(Cl)c(Cl)c3)CC2)CC1 [Example 77, 4-[[4-(3,4-dichlorophenoxy)-1-piperidinyl]methyl]-1-piperidineacetic acid]
200 nM	Cc1c(Cl)ccc(OC2CCN(CC3CCN(CC(=O)O)CC3)CC2)c1Cl [Example 78, 4-[[4-(2,4-Dichloro-3-methylphenoxy)-1-piperidinyl]methyl]-1-piperidineacetic acid]
100 nM	O=C(O)CN1CCC(O)(CN2CCC(Oc3ccc(Cl)c(Cl)c3)CC2)CC1 [Example 82, 4-[[4-(3,4-Dichlorophenoxy)-1-piperidinyl]methyl]-4-hydroxy-1-piperidineacetic acid]
200 nM	C[C@@H](C(=O)O)N1CCC(CN2CCC(Oc3ccc(Cl)c(Cl)c3)CC2)CC1 [Example 84, (2S)-2-(4-{[4-(3,4-Dichlorophenoxy)piperidin-1-yl]methyl}piperidin-1-yl)propanoic acid]
39.8 nM	Clc1ccc(OC2CCN(CC3CCN(Cc4nn[nH]n4)CC3)CC2)cc1Cl [Example 100, 4-(3,4-dichlorophenoxy)-1-[[1-(2H-tetrazol-5-ylmethyl)-4-piperidinyl]methyl]-piperidine]
20 nM	O=S(=O)(NCCCN1CCC(CN2CCC(Oc3ccc(Cl)c(Cl)c3)CC2)CC1)C(F)(F)F [Example 103, N-[3-[4-[[4-(3,4-Dichlorophenoxy)-1-piperidinyl]methyl]-1-piperidinyl]propyl]-1,1,1-trifluoro-methanesulfonamide]
